Results from patent publication US10428017B2, “Modulators of the cystic fibrosis transmembrane conductance regulator protein and methods of use” (AbbVie S.à.r.l., priority 2017, dated 2019).
Like-named read-outs stand apart in the source and are kept apart here.

Biological target: T1, F508delCFTR (Homo sapiens, UniProt P13569, DEL508-508)
T1 construct: expressed in transfected cells; host or cells: CFBE4lo-F508delCFTR-HRP cells (human lung derived epithelial cell line, doxycycline-inducible)
Experiment: Cell Surface Expression-Horse Radish Peroxidase (CSE-HRP) Assay
Assay type: cell-based
Conditions: for EC50: CFBE4lo-F508delCFTR-HRP cells, 18-24 hours at 33° C.; for Emax / Maximum % activity (with co-corrector): maximum at any tested concentration (up to 20 μM), normalized to on-plate positive control (2 μM co-corrector); for Maximum % activity (with co-corrector): with co-corrector 2 μM
How it was run: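 Surface F508delCFTR measured via exofacial-loop HRP luminescence (luminol) in doxycycline-induced (0.5 μg/mL, 72 h) CFBE4lo− cells. Compounds, 20 μM top, 3-fold, 8 concentrations, ±2 μM co-corrector, incubated 18-24 h at 33° C; EC50 by variable-slope sigmoidal fit of % activity relative to positive control, three replicate plates.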

[1] = test compound without co-corrector, HRP luminescence readout, read-out: EC50 (without co-corrector)
[2] = test compound without co-corrector
[3] = with co-corrector 2 μM 3-[(2R,4R)-4-({[1-(2,2-difluoro-1,3-benzodioxol-5-yl)cyclopropyl]carbonyl}amino)-7-methoxy-3,4-dihydro-2H-chromen-2-yl]benzoic acid, read-out: EC50 (with co-corrector)

T1 sequence (P13569 with tags, fused parts or gaps DEL508-508): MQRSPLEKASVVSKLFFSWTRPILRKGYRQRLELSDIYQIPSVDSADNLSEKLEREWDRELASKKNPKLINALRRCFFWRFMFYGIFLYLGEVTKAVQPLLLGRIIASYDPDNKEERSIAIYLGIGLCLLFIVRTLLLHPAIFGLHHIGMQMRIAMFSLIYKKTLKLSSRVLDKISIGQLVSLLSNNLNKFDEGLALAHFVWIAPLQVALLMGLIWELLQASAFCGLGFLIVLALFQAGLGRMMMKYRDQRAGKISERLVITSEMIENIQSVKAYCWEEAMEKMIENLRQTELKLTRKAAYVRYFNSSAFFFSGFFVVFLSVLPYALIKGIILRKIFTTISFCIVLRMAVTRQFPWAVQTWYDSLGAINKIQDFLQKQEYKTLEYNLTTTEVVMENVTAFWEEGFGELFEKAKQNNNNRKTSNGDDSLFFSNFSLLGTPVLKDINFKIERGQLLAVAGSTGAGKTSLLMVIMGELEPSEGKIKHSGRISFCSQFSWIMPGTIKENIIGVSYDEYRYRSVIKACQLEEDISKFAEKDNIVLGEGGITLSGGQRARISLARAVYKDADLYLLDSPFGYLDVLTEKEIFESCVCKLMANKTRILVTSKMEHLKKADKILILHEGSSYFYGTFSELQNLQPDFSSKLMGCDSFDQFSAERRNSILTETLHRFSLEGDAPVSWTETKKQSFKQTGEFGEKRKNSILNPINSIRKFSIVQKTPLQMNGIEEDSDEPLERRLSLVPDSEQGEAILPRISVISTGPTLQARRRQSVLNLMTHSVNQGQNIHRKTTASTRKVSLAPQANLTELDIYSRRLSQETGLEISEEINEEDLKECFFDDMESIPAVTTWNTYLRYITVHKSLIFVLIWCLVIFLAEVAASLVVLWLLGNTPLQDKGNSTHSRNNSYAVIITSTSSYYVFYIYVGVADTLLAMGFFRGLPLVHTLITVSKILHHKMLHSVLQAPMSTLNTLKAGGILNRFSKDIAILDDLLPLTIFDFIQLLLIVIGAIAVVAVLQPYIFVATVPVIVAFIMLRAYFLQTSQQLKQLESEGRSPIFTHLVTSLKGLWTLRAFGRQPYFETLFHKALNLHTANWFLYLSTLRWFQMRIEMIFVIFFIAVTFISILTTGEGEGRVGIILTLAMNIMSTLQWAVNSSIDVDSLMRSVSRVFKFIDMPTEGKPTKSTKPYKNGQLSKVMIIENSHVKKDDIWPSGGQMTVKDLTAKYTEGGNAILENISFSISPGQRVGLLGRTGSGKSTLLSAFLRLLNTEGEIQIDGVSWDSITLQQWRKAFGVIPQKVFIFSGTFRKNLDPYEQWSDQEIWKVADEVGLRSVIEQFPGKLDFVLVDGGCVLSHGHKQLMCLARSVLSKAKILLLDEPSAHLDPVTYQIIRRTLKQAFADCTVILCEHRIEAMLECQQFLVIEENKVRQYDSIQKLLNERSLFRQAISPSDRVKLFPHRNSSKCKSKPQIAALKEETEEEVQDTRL

Row | SMILES | EC50 [1] [µM] | Emax [2] [%] | EC50 [3] [µM] | Maximum % activity (with co-corrector)
1 | COc1ccc(Br)c2c1C(C(=O)NS(=O)(=O)c1cccc3ccccc13)CCO2 (centres unmarked) [Example 11, 8-bromo-5-methoxy-N-(naphthalene-1-sulfonyl)-3,4-dihydro-2H-1-benzopyran-4-carboxamide] | < 3 | ≥ 150 | < 3 | +++ (≥350)
2 | COc1ccc(C2CCC2)c2c1C(C(=O)NS(=O)(=O)c1cccc3ccccc13)OCC2 (centres unmarked) [Example 79, 5-cyclobutyl-8-methoxy-N-(naphthalene-1-sulfonyl)-3,4-dihydro-1H-2-benzopyran-1-carboxamide] | 3 to 10 | ≥ 150 | < 3 | +++ (≥350)
3 | CCCS(=O)(=O)NC(=O)C1COc2ccc(Cl)cc21 (centres unmarked) [Example 28, 5-chloro-N-(propane-1-sulfonyl)-2,3-dihydro-1-benzofuran-3-carboxamide] | ≥ 10 | < 50 | ≥ 10 | + (<150)
4 | Cc1ccccc1S(=O)(=O)NC(=O)C1CCOc2ccccc21 (centres unmarked) [Example 30, N-(2-methylbenzene-1-sulfonyl)-3,4-dihydro-2H-1-benzopyran-4-carboxamide] | ≥ 10 | < 50 | 3 to 10 | + (<150)
5 | COc1ccc(Br)c2c1C(C(=O)NS(=O)(=O)c1cccc3ncccc13)CC(C)(C)O2 (centres unmarked) [Example 46, 8-bromo-5-methoxy-2,2-dimethyl-N-(quinoline-5-sulfonyl)-3,4-dihydro-2H-1-benzopyran-4-carboxamide] | < 3 | ≥ 150 | < 3 | +++ (≥350)
6 | O=C(NS(=O)(=O)c1cccc2ccccc12)C1OCCc2ccc(OC(F)(F)F)cc21 (centres unmarked) [Example 109, N-(naphthalene-1-sulfonyl)-7-(trifluoromethoxy)-3,4-dihydro-1H-2-benzopyran-1-carboxamide] |  |  | 3 to 10 | ++ (≥150 and <350)
7 | O=C(NS(=O)(=O)c1cccc2ccccc12)C1COc2c(Cl)cccc21 (centres unmarked) [Example 43, 7-chloro-N-(naphthalene-1-sulfonyl)-2,3-dihydro-1-benzofuran-3-carboxamide] | 3 to 10 | < 50 | 3 to 10 | ++ (≥150 and <350)
8 | CCC1(C(=O)NS(=O)(=O)c2cccc3ccccc23)COc2c(OC)cccc21 (centres unmarked) [Example 15, 3-ethyl-7-methoxy-N-(naphthalene-1-sulfonyl)-2,3-dihydro-1-benzofuran-3-carboxamide] | 3 to 10 | 50 to 150 | 3 to 10 | +++ (≥350)
9 | COc1ccc(C(F)(F)F)c2c1[C@@H](C(=O)NS(=O)(=O)c1cccc3ccccc13)CCO2 [Example 57, (4S)-5-methoxy-N-(naphthalene-1-sulfonyl)-8-(trifluoromethyl)-3,4-dihydro-2H-1-benzopyran-4-carboxamide] | 3 to 10 | ≥ 150 | < 3 | +++ (≥350)
10 | O=C(NS(=O)(=O)c1cccc2ccccc12)C1(c2ccccc2)COc2ccccc21 (centres unmarked) [Example 6, N-(naphthalene-1-sulfonyl)-3-phenyl-2,3-dihydro-1-benzofuran-3-carboxamide] | < 3 | 50 to 150 | < 3 | +++ (≥350)
11 | COc1ccc(C(F)(F)F)c2c1C(C(=O)NS(=O)(=O)c1cccc3ccccc13)CCO2 (centres unmarked) [Example 53, 5-methoxy-N-(naphthalene-1-sulfonyl)-8-(trifluoromethyl)-3,4-dihydro-2H-1-benzopyran-4-carboxamide] | < 3 | ≥ 150 | < 3 | +++ (≥350)
12 | COc1ccc(C2CCC2)c2c1C(C(=O)NS(=O)(=O)c1cccc3ncccc13)OCC2 (centres unmarked) [Example 81, 5-cyclobutyl-8-methoxy-N-(quinoline-5-sulfonyl)-3,4-dihydro-1H-2-benzopyran-1-carboxamide] | 3 to 10 | ≥ 150 | < 3 | +++ (≥350)
13 | Cc1ccccc1S(=O)(=O)NC(=O)C1Cc2ccccc2O1 (centres unmarked) [Example 17, N-(2-methylbenzene-1-sulfonyl)-2,3-dihydro-1-benzofuran-2-carboxamide] | ≥ 10 | < 50 | ≥ 10 | + (<150)
14 | O=C(NS(=O)(=O)c1cccc2ccccc12)C1CCOc2c(Cl)cccc21 (centres unmarked) [Example 7, 8-chloro-N-(naphthalene-1-sulfonyl)-3,4-dihydro-2H-1-benzopyran-4-carboxamide] | 3 to 10 | ≥ 150 | 3 to 10 | +++ (≥350)
15 | COc1cccc2c1CCOC2C(=O)NS(=O)(=O)c1cccc2ccccc12 (centres unmarked) [Example 110, 5-methoxy-N-(naphthalene-1-sulfonyl)-3,4-dihydro-1H-2-benzopyran-1-carboxamide] | ≥ 10 | < 50 | 3 to 10 | ++ (≥150 and <350)

Next, values leading:

Row | EC50 [1] [µM] | Emax [2] [%] | EC50 [3] [µM] | Maximum % activity (with co-corrector) | SMILES
16 | 3 to 10 | ≥ 150 | < 3 | +++ (≥350) | COc1ccc(C2CCC2)c2c1C(C(=O)NS(=O)(=O)c1cccc3c1NCCC3)CO2 (centres unmarked) [Example 90, 7-cyclobutyl-4-methoxy-N-(1,2,3,4-tetrahydroquinoline-8-sulfonyl)-2,3-dihydro-1-benzofuran-3-carboxamide]
17 | 3 to 10 | 50 to 150 | < 3 | +++ (≥350) | COc1ccc(C2CCC2)c2c1[C@@H](C(=O)NS(=O)(=O)c1cccc3cnn(C)c13)CO2 (single isomer, unassigned) [Example 94]
18 | < 3 | ≥ 150 | < 3 | +++ (≥350) | COc1ccc(C2CCC2)c2c1C(C(=O)NS(=O)(=O)c1cccc3[nH]ccc13)CCO2 (centres unmarked) [Example 102, 8-cyclobutyl-N-(1H-indole-4-sulfonyl)-5-methoxy-3,4-dihydro-2H-1-benzopyran-4-carboxamide]
19 | 3 to 10 | 50 to 150 | 3 to 10 | +++ (≥350) | COc1ccc(C2CCC2)c2c1[C@@H](C(=O)NS(=O)(=O)c1cccc3c1NCCC3)CO2 (single isomer, unassigned) [Example 98]
20 | < 3 | ≥ 150 | < 3 | +++ (≥350) | COc1ccc(C2CCC2)c2c1[C@H](C(=O)NS(=O)(=O)c1cccc3ncccc13)CC(C)(C)O2 [Example 86, (4R)-8-cyclobutyl-5-methoxy-2,2-dimethyl-N-(quinoline-5-sulfonyl)-3,4-dihydro-2H-1-benzopyran-4-carboxamide]
21 | < 3 | ≥ 150 | < 3 | +++ (≥350) | COc1ccc(C2CCC2)c2c1[C@H](C(=O)NS(=O)(=O)c1cccc3ncccc13)CO2 (single isomer, unassigned) [Example 83]
22 | 3 to 10 | ≥ 150 | < 3 | +++ (≥350) | COc1ccc(Cl)c2c1[C@@H](C(=O)NS(=O)(=O)c1cccc3ccccc13)CO2 (single isomer, unassigned) [Example 67]
23 | 3 to 10 | ≥ 150 | 3 to 10 | +++ (≥350) | COc1ccc(C2CCC2)c2c1[C@@H](C(=O)NS(=O)(=O)c1cccc3ncccc13)CCO2 [Example 59, (4S)-8-cyclobutyl-5-methoxy-N-(quinoline-5-sulfonyl)-3,4-dihydro-2H-1-benzopyran-4-carboxamide]
24 | 3 to 10 | ≥ 150 | < 3 | +++ (≥350) | COc1ccc(Cl)c2c1[C@H](C(=O)NS(=O)(=O)c1cccc3ccccc13)CO2 (single isomer, unassigned) [Example 68]
25 | < 3 | ≥ 150 | < 3 | +++ (≥350) | COc1ccc(C2CCC2)c2c1[C@H](C(=O)NS(=O)(=O)c1cccc3c1CCCN3)CC(C)(C)O2 (single isomer, unassigned) [Example 97]
26 | < 3 | ≥ 150 | < 3 | +++ (≥350) | COc1ccc(C2CCC2)c2c1[C@H](C(=O)NS(=O)(=O)c1cccc3cnn(C)c13)CO2 [Example 95, (3S)-7-cyclobutyl-4-methoxy-N-(1-methyl-1H-indazole-7-sulfonyl)-2,3-dihydro-1-benzofuran-3-carboxamide]
27 | 3 to 10 | ≥ 150 | 3 to 10 | +++ (≥350) | COc1ccc(C2CCC2)c2c1[C@@H](C(=O)NS(=O)(=O)c1cccc3ncccc13)CO2 (single isomer, unassigned) [Example 82]
28 | < 3 | ≥ 150 | < 3 | +++ (≥350) | COc1ccc(Br)c2c1[C@H](C(=O)NS(=O)(=O)c1cccc3cnn(C)c13)CCO2 [Example 70, (4R)-8-bromo-5-methoxy-N-(1-methyl-1H-indazole-7-sulfonyl)-3,4-dihydro-2H-1-benzopyran-4-carboxamide]
